Experimental data reported in ChEMBL document CHEMBL3886179, “Substituted 6, 7-dialkoxy-3-isoquinoline derivatives as inhibitors of phosphodiesterase 10 (PDE 10A)” (2015).

Biological target: cAMP and cAMP-inhibited cGMP 3',5'-cyclic phosphodiesterase 10A (Homo sapiens, UniProt Q9Y233)
Test: Diaxonhit Phosphodiesterase Assay: The phosphodiesterase assay was developed using the LANCE cAMP kit (PerkinElmer). The assay buffer contained HBSS with 5 mM HEPES, 0.1% BSA, and 1.5 mM MgCl2, pH 7.4. PDE10A (BPS Bioscience) was used at 200 pg/well (with a specific activity of 3200 pmole/min/ug with assay conditions: 10 mM Tris-HCl, pH 7.4, 10 mM MgCl2, 1 mM MnCl2, 200 uM cAMP, 2.5 kU 5' nucleotidase, 37° C., 20 min) and PDE4D3 (BPS Bioscience) was used at 100 pg/well (with a specific activity of 32713 pmole/min/ug with assay conditions: 10 mM Tris-HCl, pH 7.4, 10 mM MgCl2, 1 mM MnCl2, 200 uM cAMP, 2.5 kU 5' nucleotidase, 37° C., 20 min). The Biotin-cAMP tracer, supplied in 10 mmol/L Tris-HCl buffered (pH 8.0) salt solution with 1 mmol/L ethylenediaminetetraacetic acid (EDTA), 0.1% bovine serum albumin (BSA), and 0.05% sodium azide, is used at a dilution of 1/375. The assay detection mixture contained the LANCE Eu-W8044 labeled streptavidin 1/2250 (supplied in 50 mmol/L Tris-HCl buffer).

Sequence of cAMP and cAMP-inhibited cGMP 3',5'-cyclic phosphodiesterase 10A (Q9Y233 whole entry): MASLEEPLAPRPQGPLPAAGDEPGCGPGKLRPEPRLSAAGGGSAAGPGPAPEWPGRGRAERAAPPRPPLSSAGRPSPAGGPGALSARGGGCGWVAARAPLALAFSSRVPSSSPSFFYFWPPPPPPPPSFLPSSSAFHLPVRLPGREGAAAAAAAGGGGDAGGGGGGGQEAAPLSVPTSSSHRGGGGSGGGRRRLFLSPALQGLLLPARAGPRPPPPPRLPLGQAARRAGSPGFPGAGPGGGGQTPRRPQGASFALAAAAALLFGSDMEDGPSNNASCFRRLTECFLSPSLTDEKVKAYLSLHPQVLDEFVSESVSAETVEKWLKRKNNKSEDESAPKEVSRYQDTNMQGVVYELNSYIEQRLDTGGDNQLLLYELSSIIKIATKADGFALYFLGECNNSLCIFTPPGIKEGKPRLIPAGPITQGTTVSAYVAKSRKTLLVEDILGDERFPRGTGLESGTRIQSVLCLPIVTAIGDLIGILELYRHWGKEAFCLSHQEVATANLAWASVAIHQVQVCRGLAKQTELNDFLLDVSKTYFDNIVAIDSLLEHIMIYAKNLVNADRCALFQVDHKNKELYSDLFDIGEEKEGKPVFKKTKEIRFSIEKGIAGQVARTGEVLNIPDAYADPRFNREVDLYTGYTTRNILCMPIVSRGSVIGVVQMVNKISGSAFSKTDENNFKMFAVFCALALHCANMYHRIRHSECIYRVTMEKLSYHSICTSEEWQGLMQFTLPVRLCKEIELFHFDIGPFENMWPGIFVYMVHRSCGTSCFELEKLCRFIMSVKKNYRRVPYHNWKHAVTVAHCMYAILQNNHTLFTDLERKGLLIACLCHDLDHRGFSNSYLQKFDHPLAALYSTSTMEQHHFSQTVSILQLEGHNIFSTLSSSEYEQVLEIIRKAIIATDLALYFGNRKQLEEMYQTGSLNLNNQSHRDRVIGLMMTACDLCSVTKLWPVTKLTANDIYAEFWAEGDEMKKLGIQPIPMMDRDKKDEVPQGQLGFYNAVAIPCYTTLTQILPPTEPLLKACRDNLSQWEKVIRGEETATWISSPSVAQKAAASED

First: CCn1c(=O)oc2cc(Cc3cncc4cc(OC)c(OC)cc34)ccc21
Second: CCn1c(=O)oc2ccc(Cc3cncc4cc(OC)c(OC)cc34)cc21
The IC50 of the first is 4.1-fold higher: 32 nM for the first, 7.8 nM for the second. The second is the more potent here.

`COc1cc2cncc(Cc3ccc4c(c3)oc(=O)n4C)c2cc1OC` and `CCCc1ncc(Cc2ccc3c(c2)oc(=O)n3C)c2cc(OC)c(OC)cc12` are within 1.5-fold of each other in IC50: 3.6 nM for the first, 4.4 nM for the second.

First: COc1cc2cncc(Cc3ccc4c(c3)OCCN4C)c2cc1OC
Second: COc1cc2cncc(Cc3cnc4ccc(O)cc4c3)c2cc1OC
The IC50 of the first is 24-fold higher: 70 nM for the first, 2.9 nM for the second. The second is the more potent here.

First: CCCc1ncc(Cc2ccc3cccc(OCCC(=O)O)c3n2)c2cc(OC)c(OC)cc12
Second: CCc1ncc(Cc2ccc3cccc(OCCC(=O)O)c3n2)c2cc(OC)c(OC)cc12
The IC50 of the first is 2.2-fold lower: 2.3 nM for the first, 5 nM for the second. The first is the more potent here.

`CCc1ncc(Cc2ccc3cccc(OCC(N)=O)c3n2)c2cc(OC)c(OC)cc12` and `CCCc1ncc(Cc2ccc3cccc(O)c3n2)c2cc(OC)c(OC)cc12` are the same in IC50: 20 nM for the first, 20 nM for the second.

Going from `COc1cc2c[n+]([O-])cc(Cc3ccc4oc5ccccc5c4c3)c2cc1OC` to `CCc1ncc(Cc2ccc3oc4ccccc4c3c2)c2cc(OC)c(OC)cc12`, the IC50 rises from 31 nM to 339 nM (11-fold).

Going from `COc1cc2cncc(Cc3cc4ccccc4nc3N(C)C)c2cc1OC` to `COc1ccc2nc(O)c(Cc3cncc4cc(OC)c(OC)cc34)cc2c1`, the IC50 falls from 142 nM to 25 nM (5.7-fold).

First: CCCc1ncc(Cc2cc3ccccc3nc2O)c2cc(OC)c(OC)cc12
Second: CCCc1ncc(Cc2cc3ccccc3cn2)c2cc(OC)c(OC)cc12
The IC50 of the first is 4.4-fold lower: 36 nM for the first, 159 nM for the second. The first is the more potent here.

`CCn1ncc2c(Cl)c(Cc3cncc4cc(OC)c(OC)cc34)cnc21` and `CCn1ncc2c(O)c(Cc3cncc4cc(OC)c(OC)cc34)cnc21` are within 1.5-fold of each other in IC50: 330 nM for the first, 238 nM for the second.

Going from `CCCc1ncc(Cc2coc3ccc(C)cc3c2=O)c2cc(OC)c(OC)cc12` to `CCCc1ncc(Cc2cc3cc(OC)ccc3nc2NCC)c2cc(OC)c(OC)cc12`, the IC50 falls from 31 nM to 9.7 nM (3.2-fold).

Going from `COc1cc2c(Cc3ccc4cccc(O)c4n3)cnc(C3CC3)c2cc1OC` to `CCc1ncc(Cc2ccc3cccc(C#N)c3n2)c2cc(OC)c(OC)cc12`, the IC50 falls from 151 nM to 46 nM (3.3-fold). The second is the more potent here.

Going from `c1ccc2c(c1)oc1ccc(Cc3cncc4cc5c(cc34)OCO5)cc12` to `COc1cc2cncc(Cc3ccc4oc(-c5ccccc5)nc4c3)c2cc1OC`, the IC50 falls from 3170 nM to 189 nM (17-fold). The second is the more potent here.

Compared with `CCc1ncc(Cc2cnc3ccccc3c2)c2cc(OC)c(OC)cc12`, `COc1cc2c(Cc3cnc4cc(C)ccc4c3)cnc(C)c2cc1OC` is 2.7-fold lower in IC50: 19 nM for the first, 7.1 nM for the second. The second is the more potent here.

First: COc1cc2c(Cc3ccc4nc(C)ccc4c3)cnc(-c3ccccc3)c2cc1OC
Second: CCOc1cccc2ccc(Cc3cncc4cc(OC)c(OC)cc34)nc12
The IC50 of the first is 3-fold higher: 148 nM for the first, 49 nM for the second. The second is the more potent here.

Going from `CCCOc1cccc2ccc(Cc3cncc4cc(OC)c(OC)cc34)nc12` to `CCOc1cc2cncc(Cc3cnc4ccccc4c3)c2cc1OCC`, the IC50 falls from 315 nM to 168 nM (1.9-fold).
